Assay results from patent US7119094B1, “Substituted polycyclic aryl and heteroarpyl pyrazinones useful for selective inhibition of the coagulation cascade” (Warner-Lambert Company, priority 2000, dated 2006).
pIC50: −log10 of the molar value. Read-outs that look alike come from different tables or passages of the source.

Tests used:
[1] = biological target: T1, recombinant soluble tissue factor and recombinant human factor VIIa (TF-VIIa) (Homo sapiens, UniProt P08709); assay: TF-VIIa Assay; assay type: biochemical
T1 construct: conversion of coagulation factor VII to VIIa by Xa; purchased American Diagnostica, Greenwich Conn; host or cells: factor VIIa purchased; soluble TF made in house in E. coli

[2] = biological target: T2, Trypsin (type 1× from porcine pancreas) (Sus scrofa, UniProt P00761); assay: Trypsin Assay; assay type: biochemical; set-up: % Inhibition Trypsin II @ 1: concentration or dose not given beside the values; conditions: for % Inhibition Trypsin II (30 µM): at 30 µM
T2 construct: Trypsin (5 ug/ml; type 1× from porcine pancreas); purchased Sigma, St. Louis Mo; host or cells: porcine pancreas
T2 sequence (P00761 9-231): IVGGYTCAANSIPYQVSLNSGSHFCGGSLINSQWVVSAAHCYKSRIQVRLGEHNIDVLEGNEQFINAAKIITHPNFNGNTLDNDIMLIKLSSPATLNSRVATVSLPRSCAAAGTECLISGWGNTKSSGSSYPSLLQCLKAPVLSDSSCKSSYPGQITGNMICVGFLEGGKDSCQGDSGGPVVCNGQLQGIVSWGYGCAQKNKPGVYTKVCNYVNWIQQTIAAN

T1 sequence (P08709 213-466 limits assumed): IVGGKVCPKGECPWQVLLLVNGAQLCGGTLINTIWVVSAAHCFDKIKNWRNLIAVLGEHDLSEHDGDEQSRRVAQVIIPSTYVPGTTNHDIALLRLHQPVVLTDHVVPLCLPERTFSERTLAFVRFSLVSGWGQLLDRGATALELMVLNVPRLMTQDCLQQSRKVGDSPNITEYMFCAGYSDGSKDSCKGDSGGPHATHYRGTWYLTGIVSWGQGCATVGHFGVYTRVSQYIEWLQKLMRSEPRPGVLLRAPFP
T1 sequence (P08709 61-212 limits assumed): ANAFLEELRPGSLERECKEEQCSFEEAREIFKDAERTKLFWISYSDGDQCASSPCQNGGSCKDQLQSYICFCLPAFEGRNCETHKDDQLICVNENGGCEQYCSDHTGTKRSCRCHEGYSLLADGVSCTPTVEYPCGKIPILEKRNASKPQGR
T1 sequence (P13726 33-251 partner limits assumed): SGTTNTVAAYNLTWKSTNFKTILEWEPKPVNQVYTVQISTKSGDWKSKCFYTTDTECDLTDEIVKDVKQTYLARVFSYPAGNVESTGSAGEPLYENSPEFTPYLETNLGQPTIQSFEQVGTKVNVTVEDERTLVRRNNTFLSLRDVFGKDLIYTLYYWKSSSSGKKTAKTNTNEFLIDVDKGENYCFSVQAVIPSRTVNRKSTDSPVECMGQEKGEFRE

Structure (SMILES) | % Inhibition Trpysin II (100 νM) ([2]; inhibitor at 100 νM) [%] | % Inhibition TF-VIIa (100 νM) ([1]; inhibitor at 100 νM) [%] | % Inhibition Trypsin II @ 1 [2] [% @ 1] | further results
N=C(N)c1ccc(CNC(=O)Cn2c(-c3ccc4c(c3)OCO4)c(Cl)nc(NCCc3ccc(Cl)cc3)c2=O)cc1 [1471-42] | – | – | – | pIC50 ([1]; read-out: IC50 TF-VIIa): 4.98
O=C(Cn1c(-c2ccc(Cl)cc2)c(Cl)nc(NCCc2ccccc2)c1=O)NCCc1ccncc1 [Example E-0026] | 3 | 0 | – | –
O=C(Cn1c(CCc2ccccc2)c(Cl)nc(NCCc2ccc(Cl)cc2)c1=O)NCCc1ccncc1 [Example E-0068] | 0 | 0 | – | –
COc1ccc(-c2c(Cl)nc(NCCc3ccc(Cl)cc3)c(=O)n2CC(=O)NCCc2ccncc2)cc1 [Example E-0106] | 9 | 5 | – | –
O=C(Cn1c(-c2ccc3c(c2)OCO3)c(Cl)nc(NCCc2ccc(Cl)cc2)c1=O)NCCc1ccncc1 [Example E-0044] | 3 | 0 | – | –
N=C(N)c1ccc(CNC(=O)Cn2c(-c3ccccc3)c(Cl)nc(NCc3cccc(F)c3)c2=O)cc1 [1507-42] | – | – | 0 | –
O=C(Cn1c(-c2ccc(-c3ccccc3)cc2)c(Cl)nc(NCCc2ccc(Cl)cc2)c1=O)NCCc1ccncc1 [Example E-0118] | – | – | – | % Inhibition Trpysin II (100 νM) [2]: 9%; % Inhibition TF-VIIa (100 νM) [1]: 12%
O=C(Cn1c(-c2cccc(Cl)c2)c(Cl)nc(NCCc2ccc(Cl)cc2)c1=O)NCCc1cccnc1 [Example E-0095] | 9 | 2 | – | –
O=C(Cn1c(-c2ccc(Cl)cc2)c(Cl)nc(NCCc2ccncc2)c1=O)NCCc1ccncc1 [Example E-0030] | 4 | 0 | – | –
COc1ccc(-c2c(Cl)nc(NCc3ccncc3)c(=O)n2CC(=O)NCCc2ccncc2)cc1 [Example E-0040] | 4 | 0 | – | –
N=C(N)c1ccc(CNC(=O)Cn2c(-c3ccccc3)c(Cl)nc(NC(Cc3ccccc3)c3ccccc3)c2=O)cc1 (centres unmarked) [1507-07] | – | – | 7 | –
COc1ccc(-c2c(Cl)nc(NCCc3ccccc3)c(=O)n2CC(=O)NCCc2ccncc2)cc1 [Example E-0100] | 12 | – | – | –
CC(C)Nc1nc(Cl)c(-c2cccc([N+](=O)[O-])c2)n(CC(=O)NCc2ccc(C(N)=NO)cc2)c1=O [Example 61] | – | – | – | % Inhibition Trypsin II (30 µM) [2]: 10%
O=C(Cn1c(CCc2ccccc2)c(Cl)nc(NCc2ccccc2)c1=O)NCCc1ccncc1 [Example E-0065] | 0 | 0 | – | –
N=C(N)c1ccc(CNC(=O)Cn2c(-c3ccccc3)c(Cl)nc(NCc3cccc4ccccc34)c2=O)cc1 [1507-28] | – | – | 1 | –
N=C(N)c1ccc(CNC(=O)Cn2c(-c3ccccc3)c(Cl)nc(NCc3ccc(F)cc3F)c2=O)cc1 [1507-26] | – | – | 11 | –
N=C(N)c1ccc(CNC(=O)Cn2c(-c3ccccc3)c(Cl)nc(NCc3ccc(Cl)cc3Cl)c2=O)cc1 [1507-22] | – | – | 8 | –
COc1ccc(-c2c(Cl)nc(NCCc3ccncc3)c(=O)n2CC(=O)NCCc2ccncc2)cc1 [Example E-0038] | 3 | 0 | – | –
O=C(Cn1c(-c2ccc3c(c2)OCO3)c(Cl)nc(NCCc2ccncc2)c1=O)NCCc1ccncc1 [Example E-0046] | 4 | 0 | – | –
Cc1c(Cl)nc(NCCc2ccncc2)c(=O)n1CC(=O)NCCc1ccncc1 [Example E-0006] | 1 | 2 | – | –
O=C(Cn1c(CCc2ccccc2)c(Cl)nc(NCCN2CCOCC2)c1=O)NCCc1ccncc1 [Example E-0071] | 0 | 0 | – | –
O=C(Cn1c(-c2cccc(Cl)c2)c(Cl)nc(NCCc2ccc(Cl)cc2)c1=O)NCCc1ccncc1 [Example E-0094] | 7 | 2 | – | –
O=C(Cn1c(Cc2ccccc2)c(Cl)nc(NCCc2ccc(Cl)cc2)c1=O)NCCc1ccncc1 [Example E-0060] | 0 | 0 | – | –
O=C(Cn1c(-c2ccc3c(c2)OCO3)c(Cl)nc(NCc2ccccc2)c1=O)NCCc1ccncc1 [Example E-0041] | 2 | 0 | – | –
N=C(N)c1ccc(CNC(=O)Cn2c(-c3ccccc3)c(Cl)nc(NC3CC3)c2=O)cc1 [1507-31] | – | – | 2 | –
N=C(N)NCC#CCNC(=O)Cn1c(-c2ccccc2)cnc(NCCc2ccccc2)c1=O [Example 36] | – | – | – | % Inhibition Trypsin II (30 µM) [2]: 30%

Structure (SMILES) | % Inhibition Trpysin II (100 νM) ([2]; inhibitor at 100 νM) [%] | % Inhibition TF-VIIa (100 νM) ([1]; inhibitor at 100 νM) [%] | % Inhibition Trypsin II @ 1 [2] [% @ 1] | further results
Cc1c(Cl)nc(NCCc2ccc(Cl)cc2)c(=O)n1CC(=O)NCCc1ccncc1 [Example E-0004] | 0 | 0 | – | –
O=C(Cn1c(-c2cccc(Cl)c2)c(Cl)nc(NCc2ccccc2)c1=O)NCCc1cccnc1 [Example E-0086] | 11 | 0 | – | –
O=C(Cn1c(-c2ccccc2)c(Cl)nc(NCc2ccccc2)c1=O)NCCc1ccncc1 [Example E-0009] | 1 | 0 | – | –
O=C(Cn1c(-c2cccc(Cl)c2)c(Cl)nc(NCCc2ccccc2)c1=O)NCCc1ccncc1 [Example E-0088] | 9 | 0 | – | –
Nc1cccc(-c2c(Cl)nc(NC3CCC3)c(=O)n2CC(=O)NCc2ccccc2)c1 [Example 99] | – | – | – | % Inhibition Trypsin II (30 µM) [2]: 7% @ 30
COc1ccc(-c2c(Cl)nc(NCCc3cccc(Cl)c3)c(=O)n2CC(=O)NCCc2cccnc2)cc1 [Example E-0104] | 9 | 3 | – | –
N=C(N)c1ccc(CNC(=O)Cn2c(-c3ccccc3)c(Cl)nc(NCc3ccccn3)c2=O)cc1 [1507-24] | – | – | – | % Inhibition Trypsin II (30 µM) [2]: 25% @ 30
N=C(N)c1ccc(CNC(=O)Cn2c(-c3ccccc3)c(Cl)nc(NCc3cccc(Cl)c3)c2=O)cc1 [1507-38] | – | – | 0 | –
Cc1ccc(CCNc2nc(Cl)c(-c3ccccc3)n(CC(=O)NCc3ccc(C(=N)N)cc3)c2=O)cc1 [1507-45] | – | – | 0 | –
COc1ccc(-c2c(Cl)nc(NCCc3cccc(Cl)c3)c(=O)n2CC(=O)NCCc2ccncc2)cc1 [Example E-0035] | 2 | 4 | – | –
N=C(N)c1ccc(CNC(=O)Cn2c(-c3ccccc3)c(Cl)nc(NCc3ccc(Br)cc3)c2=O)cc1 [1507-30] | – | – | 0 | –
N=C(N)c1ccc(CNC(=O)Cn2c(-c3ccccc3)c(Cl)nc(NC3CCCC3)c2=O)cc1 [1507-25] | – | – | 60 | –
COc1ccc(CCNc2nc(Cl)c(-c3ccccc3)n(CC(=O)NCc3ccc(C(=N)N)cc3)c2=O)cc1 [1507-11] | – | – | 27 | –
N=C(N)c1ccc(CNC(=O)Cn2c(-c3cccc(N)c3)c(Cl)nc(NCCc3ccccc3)c2=O)cc1 [Example 86] | – | – | 78 | –
N=C(N)c1ccc(CNC(=O)Cn2c(-c3ccccc3)c(Cl)nc(NCC3CC3)c2=O)cc1 [Example 1517-43] | – | – | – | % Inhibition Trypsin II (30 µM) ([2]; cells with % sign): 43%
N=C(N)c1ccc(CNC(=O)Cn2c(-c3ccccc3)c(Cl)nc(NCc3ccccc3C(F)(F)F)c2=O)cc1 [1507-15] | – | – | 11 | –
COc1ccc(CNc2nc(Cl)c(-c3ccccc3)n(CC(=O)NCc3ccc(C(=N)N)cc3)c2=O)cc1 [1507-13] | – | – | 8 | –
N=C(N)c1ccc(CNC(=O)Cn2c(-c3ccccc3)c(Cl)nc(NCCc3ccc(Br)cc3)c2=O)cc1 [1507-06] | – | – | 8 | –
Nc1cccc(-c2c(Cl)nc(NC3CCC3)c(=O)n2CC(=O)NCCc2ccccc2)c1 [Example 89] | – | – | – | % Inhibition Trypsin II (30 µM) [2]: 9% @ 30
COc1cccc(CCNc2nc(Cl)c(-c3ccccc3)n(CC(=O)NCc3ccc(C(=N)N)cc3)c2=O)c1 [1507-12] | – | – | 12 | –
C[C@H](Nc1nc(Cl)c(-c2ccccc2)n(CC(=O)NCc2ccc(C(=N)N)cc2)c1=O)c1ccccc1 [1507-34] | – | – | 0 | –
CC(C)CNc1nc(Cl)c(-c2ccccc2)n(CC(=O)NCc2ccc(C(=N)N)cc2)c1=O [1507-32] | – | – | 0 | –
N=C(N)c1ccc(CNC(=O)Cn2c(-c3ccccc3)c(Cl)nc(NCc3ccc(OC(F)(F)F)cc3)c2=O)cc1 [1507-04] | – | – | 9 | –
Cc1c(Cl)nc(NCCc2ccc(Cl)cc2)c(=O)n1CC(=O)NCc1ccc(C(=N)N)cc1 [1471-2] | – | – | – | % Inhibition Trypsin II (30 µM) [2]: 0%
N=C(N)c1ccc(CNC(=O)Cn2c(-c3ccccc3)c(Cl)nc(NCCc3cccs3)c2=O)cc1 [1507-18] | – | – | 6 | –
O=C(Cn1c(-c2ccccc2)c(Cl)nc(NCCN2CCOCC2)c1=O)NCCc1ccncc1 [Example E-0015] | – | 0 | – | –
